The assay addresses T1, ARNT (Homo sapiens, UniProt P27540).
T1 construct: an sgRNA targeting the C-terminus of the ARNT gene near the stop codon; endogenous in cells; host or cells: HEK293 ARNT-HiBiT knock-in, homozygous clone
The assay is described as follows: ARNT degradation in a HiBiT system (HEK293 ARNT-HiBiT Knock-In cell line). The settings on record: half-maximal degradation concentration; HEK293 ARNT-HiBiT KI cells, 4h of treatment, luminescence. The assay is classed as cell-based. The method, then: Compounds of Formula (I) were tested for ARNT degradation in a HiBiT system. A HEK293 ARNT-HiBiT Knock-In cell line was generated using CRISPR/Cas9 technology. Briefly, HEK293 cells were electroporated with the Neon system with an sgRNA targeting the C-terminus of the ARNT gene near the stop codon ([…] (SEQ ID NO: 1); chr 1: 150,812,014-150,812,034) and the HiBiT donor DNA template (80 nucleotides homology arms upstream and downstream of the insert site, with a GSGS (SEQ ID NO: 2) linker). A homozygous clone was selected after Sanger sequencing, and genetic edition was further validated using Nano-Glo HiBiT blotting system. HEK293 ARNT-HiBiT KI cells were cultured in DMEM+10% FBS at 37° C. and 5% CO2. For the assay, cells were seeded at 10,000 cells/well in white 384 plates (Corning #3570) in 22.5 μl of culture medium without phenol red. Test compounds were spotted in 384-well plates by an acoustic dispenser (10 concentrations, semi-log dilution, in 100% DMSO). Before treatment, compounds were diluted 1:100 or 1:1,000 in culture medium without phenol red, and cells were treated with 2.5 μl of diluted compounds 18h after seeding (final top concentration: 3 or 0.3 μM). After 4h of treatment, plates were equilibrated at room temperature for 30 min, and 25 μl of NANO-GLO® HiBiT Lytic reagent were added per well. Luminescence was measured on a plate reader 15 min after incubation with the detection reagent. Data were analyzed using the Genedata Screener Software version 19, and normalization was performed using the DMSO treated wells as Neutral Control and medium only (without cells) wells as Scale Reference. For curve fitting, the smart fit condensing method with a 4-parameters Hill model was used and the half-maximal degradation concentration (DC50) was calculated.

Experimental findings from patent US20250368620A1, “ARNT Degrading Compounds and Uses Thereof” (Celgene Corporation, priority 2024, published 2025) are described below.

T1 sequence (P27540 whole entry): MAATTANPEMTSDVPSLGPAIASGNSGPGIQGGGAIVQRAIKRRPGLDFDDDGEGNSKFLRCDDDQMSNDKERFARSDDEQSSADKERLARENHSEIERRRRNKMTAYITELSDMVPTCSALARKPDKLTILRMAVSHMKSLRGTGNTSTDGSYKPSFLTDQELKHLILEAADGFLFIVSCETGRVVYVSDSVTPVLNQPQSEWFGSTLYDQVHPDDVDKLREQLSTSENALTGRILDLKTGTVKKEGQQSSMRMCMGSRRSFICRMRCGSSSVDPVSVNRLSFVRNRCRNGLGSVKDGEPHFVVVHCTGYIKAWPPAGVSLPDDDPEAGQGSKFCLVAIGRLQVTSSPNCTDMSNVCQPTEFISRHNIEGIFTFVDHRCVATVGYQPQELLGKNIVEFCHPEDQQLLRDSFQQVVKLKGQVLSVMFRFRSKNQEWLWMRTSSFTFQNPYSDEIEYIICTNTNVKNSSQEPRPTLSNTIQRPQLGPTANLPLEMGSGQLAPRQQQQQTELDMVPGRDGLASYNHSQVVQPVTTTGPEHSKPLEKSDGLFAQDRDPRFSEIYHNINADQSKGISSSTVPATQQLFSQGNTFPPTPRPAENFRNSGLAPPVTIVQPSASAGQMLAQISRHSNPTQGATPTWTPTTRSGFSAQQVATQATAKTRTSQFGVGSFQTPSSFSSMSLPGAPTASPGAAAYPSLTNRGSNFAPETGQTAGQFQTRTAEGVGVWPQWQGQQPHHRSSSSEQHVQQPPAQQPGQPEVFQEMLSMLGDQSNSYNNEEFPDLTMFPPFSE

For `Cc1c(C2CC2)ccc2c1CN(C(=O)c1ccc3c(c1)[C@@H](C)N([C@H]1CCC(=O)NC1=O)C3=O)[C@H]2C` [Compound 18, (S)-3-((R)-5-((S)-5-cyclopropyl-1,4-dimethylisoindoline-2-carbonyl)-3-methyl-1-oxoisoindolin-2-yl)piperidine-2,6-dione], the half-maximal degradation concentration (DC50) was found to be 1.2 nM.
Molecule `C[C@@H]1c2cc(C(=O)N3Cc4cc(F)c(F)cc4[C@@H]3C)ccc2C(=O)N1[C@H]1CCC(=O)NC1=O` [Compound 21, (S)-3-((R)-5-((S)-5,6-difluoro-1-methylisoindoline-2-carbonyl)-3-methyl-1-oxoisoindolin-2-yl)piperidine-2,6-dione] displayed a half-maximal degradation concentration (DC50) of 1.3 nM.
The value for `C[C@@H]1c2cc(C(=O)N3Cc4cc(F)ccc4[C@@H]3C)ccc2C(=O)N1[C@H]1CCC(=O)NC1=O` [Compound 13, (S)-3-((R)-5-((S)-5-fluoro-1-methylisoindoline-2-carbonyl)-3-methyl-1-oxoisoindolin-2-yl)piperidine-2,6-dione] was 0.78 nM; that for `C[C@@H]1c2cc(C(=O)N3Cc4c(ccc(Cl)c4F)[C@@H]3CN3CC4CCC3C4)ccc2C(=O)N1[C@H]1CCC(=O)NC1=O` (stereo partly drawn) [Compound 10, (3S)-3-((3R)-5-((1R)-1-((2-azabicyclo[2.2.1]heptan-2-yl)methyl)-5-chloro-4-fluoroisoindoline-2-carbonyl)-3-methyl-1-oxoisoindolin-2-yl)piperidine-2,6-dione] was 0.71 nM.
The same measure for `C[C@@H]1c2cc(C(=O)N3Cc4c(ccc(Br)c4Cl)[C@@H]3C)ccc2C(=O)N1[C@H]1CCC(=O)NC1=O` [Compound 24, (S)-3-((R)-5-((S)-5-bromo-4-chloro-1-methylisoindoline-2-carbonyl)-3-methyl-1-oxoisoindolin-2-yl)piperidine-2,6-dione]: 1.3 nM.
The same measure for `C[C@@H]1c2cc(C(=O)N3Cc4cc(C(F)(F)F)ccc4[C@@H]3C)c(F)cc2C(=O)N1[C@H]1CCC(=O)NC1=O` [Compound 20, (S)-3-((R)-5-fluoro-1-methyl-6-((S)-1-methyl-5-(trifluoromethyl)isoindoline-2-carbonyl)-3-oxoisoindolin-2-yl)piperidine-2,6-dione]: 1.3 nM; for `C[C@@H]1c2cc(C(=O)N3Cc4c(ccc(Br)c4F)[C@@H]3C)ccc2C(=O)N1[C@H]1CCC(=O)NC1=O` [Compound 19, (S)-3-((R)-5-((S)-5-bromo-4-fluoro-1-methylisoindoline-2-carbonyl)-3-methyl-1-oxoisoindolin-2-yl)piperidine-2,6-dione]: 1.2 nM; for `C[C@@H]1c2cc(C(=O)N3Cc4c(ccc(Cl)c4F)[C@@H]3CN3CCCC3)ccc2C(=O)N1[C@H]1CCC(=O)NC1=O` [Compound 4, (S)-3-((R)-5-((R)-5-chloro-4-fluoro-1-(pyrrolidin-1-ylmethyl)isoindoline-2-carbonyl)-3-methyl-1-oxoisoindolin-2-yl)piperidine-2,6-dione]: 0.42 nM.
`COc1ccc2c(c1Br)CN(C(=O)c1ccc3c(c1)[C@@H](C)N([C@H]1CCC(=O)NC1=O)C3=O)[C@H]2CN(C)C` [Compound 14, (S)-3-((R)-5-((R)-4-bromo-1-((dimethylamino)methyl)-5-methoxyisoindoline-2-carbonyl)-3-methyl-1-oxoisoindolin-2-yl)piperidine-2,6-dione] came in with a DC50 of 0.95 nM.
As for `C[C@H]1c2ccc(C(F)(F)F)cc2CN1C(=O)c1ccc2c(c1)CN(C1CCC(=O)NC1=O)C2=O` (stereo partly drawn) [Compound 38, 3-(5-((S)-1-methyl-5-(trifluoromethyl)isoindoline-2-carbonyl)-1-oxoisoindolin-2-yl)piperidine-2,6-dione], the DC50 amounted to 7.6 nM. This DC50 lies about 8-fold higher than the previous one.
The same measure for `C[C@@H]1c2cc(C(=O)N3Cc4cc(C(F)(F)F)ccc4[C@@H]3C)ccc2C(=O)N1[C@H]1CCC(=O)NC1=O` [Compound 31, (S)-3-((R)-3-methyl-5-((S)-1-methyl-5-(trifluoromethyl)isoindoline-2-carbonyl)-1-oxoisoindolin-2-yl)piperidine-2,6-dione]: 2.2 nM; for `COc1cccc2c1CN(C(=O)c1ccc3c(c1)[C@@H](C)N([C@H]1CCC(=O)NC1=O)C3=O)[C@H]2CN(C)C` [Compound 11, (S)-3-((R)-5-((R)-1-((dimethylamino)methyl)-4-methoxyisoindoline-2-carbonyl)-3-methyl-1-oxoisoindolin-2-yl)piperidine-2,6-dione]: 0.72 nM; for `C[C@@H]1c2c(ccc(C(=O)N3Cc4ccccc4[C@@H]3CN(C)C)c2F)C(=O)N1[C@H]1CCC(=O)NC1=O` [Compound 29, (S)-3-((R)-5-((R)-1-((dimethylamino)methyl)isoin-doline-2-carbonyl)-4-fluoro-3-methyl-1-oxoisoindolin-2-yl)piperidine-2,6-dione]: 1.8 nM.
Molecule `C[C@@H]1c2cc(C(=O)N3Cc4c(ccc(Cl)c4F)[C@@H]3CN3CCC(F)CC3)ccc2C(=O)N1[C@H]1CCC(=O)NC1=O` [Compound 12, (S)-3-((R)-5-((R)-5-chloro-4-fluoro-1-((4-fluoropiperidin-1-yl)methyl)isoindoline-2-carbonyl)-3-methyl-1-oxoisoindolin-2-yl)piperidine-2,6-dione] had a DC50 of 0.73 nM.
For `C[C@@H]1c2cc(C(=O)N3Cc4c(ccc(Cl)c4F)[C@@H]3CN3CCCCC3)ccc2C(=O)N1[C@H]1CCC(=O)NC1=O` [Compound 6, (S)-3-((R)-5-((R)-5-chloro-4-fluoro-1-(piperidin-1-ylmethyl)isoindoline-2-carbonyl)-3-methyl-1-oxoisoindolin-2-yl)piperidine-2,6-dione], the DC50 is 0.46 nM. This DC50 is about 1.6-fold lower than that of the molecule before.
With `C[C@@H]1c2cc(C(=O)N3Cc4c(ccc(C(F)(F)F)c4F)[C@@H]3C)ccc2C(=O)N1[C@H]1CCC(=O)NC1=O` [Compound 32, (S)-3-((R)-5-((S)-4-fluoro-1-methyl-5-(trifluoromethyl)isoindoline-2-carbonyl)-3-methyl-1-oxoisoindolin-2-yl)piperidine-2,6-dione], the DC50 was 2.3 nM.
In the case of `C[C@@H]1c2cc(C(=O)N3Cc4c(ccc(Cl)c4F)[C@@H]3CN(C)C)ccc2C(=O)N1[C@H]1CCC(=O)NC1=O` [Compound 2, (S)-3-((R)-5-((R)-5-chloro-1-((dimethylamino)methyl)-4-fluoroisoindoline-2-carbonyl)-3-methyl-1-oxoisoindolin-2-yl)piperidine-2,6-dione], the 50% degradation concentration (DC50) was 0.33 nM. This DC50 is about 7-fold lower than that of the molecule before.
`C[C@@H]1c2cc(C(=O)N3Cc4c(ccc(C(F)(F)F)c4Cl)[C@@H]3C)ccc2C(=O)N1[C@H]1CCC(=O)NC1=O` [Compound 34, (S)-3-((R)-5-((S)-4-chloro-1-methyl-5-(trifluoromethyl)isoindoline-2-carbonyl)-3-methyl-1-oxoisoindolin-2-yl)piperidine-2,6-dione] came in with a DC50 of 3.1 nM.
`C[C@@H]1c2cc(C(=O)N3Cc4c(ccc(Cl)c4F)[C@@H]3CN3CC(F)(F)C3)ccc2C(=O)N1[C@H]1CCC(=O)NC1=O` [Compound 15, (S)-3-((R)-5-((R)-5-chloro-1-((3,3-difluoroazetidin-1-yl)methyl)-4-fluoroisoindoline-2-carbonyl)-3-methyl-1-oxoisoindolin-2-yl)piperidine-2,6-dione] displayed a DC50 of 1 nM.
Molecule `C[C@@H]1c2cc(C(=O)N3Cc4cc(Br)ccc4[C@@H]3C)ccc2C(=O)N1[C@H]1CCC(=O)NC1=O` [Compound 9, (S)-3-((R)-5-((S)-5-bromo-1-methylisoindoline-2-carbonyl)-3-methyl-1-oxoisoindolin-2-yl)piperidine-2,6-dione] came in with a DC50 of 0.66 nM.
The same measure for `C[C@@H]1c2cc(C(=O)N3Cc4ccccc4[C@@H]3CN(C)C)ccc2C(=O)N1[C@H]1CCC(=O)NC1=O` [Compound 1, (S)-3-((R)-5-((R)-1-((dimethylamino)methyl)isoin-doline-2-carbonyl)-3-methyl-1-oxoisoindolin-2-yl)piperidine-2,6-dione]: 0.29 nM; for `C[C@@H]1c2cc(C(=O)N3Cc4cc(C(F)(F)F)ccc4[C@@H]3C)ccc2C(=O)N1[C@@H]1CCC(=O)NC1=O` [Compound 37, (R)-3-((R)-3-methyl-5-((S)-1-methyl-5-(trifluoromethyl)isoindoline-2-carbonyl)-1-oxoisoindolin-2-yl)piperidine-2,6-dione]: 6.5 nM; for `COc1ccc2c(c1)CN(C(=O)c1ccc3c(c1)[C@@H](C)N([C@H]1CCC(=O)NC1=O)C3=O)[C@H]2CN(C)C` [Compound 28, (S)-3-((R)-5-((R)-1-((dimethylamino)methyl)-5-methoxyisoindoline-2-carbonyl)-3-methyl-1-oxoisoindolin-2-yl)piperidine-2,6-dione]: 1.7 nM.
The value for `C[C@H]1c2ccc(C(F)(F)F)cc2CN1C(=O)c1ccc2c3c(cccc13)N(C1CCC(=O)NC1=O)C2=O` (stereo partly drawn) [Compound 16, 3-(5-((S)-1-methyl-5-(trifluoromethyl)isoindoline-2-carbonyl)-2-oxobenzo[cd]indol-1(2H)-yl)piperidine-2,6-dione] was 1 nM.
